6 molecules from US11938120B1 (priority 2023, dated 2024) can be followed below.

≈ marks a conversion by molar mass, not a printed value.

For orientation: melting point means the temperature of the solid-liquid transition.

Data set [1] has as its system Mycobacterium tuberculosis H37Rv (ATCC 25177). Nature of the data set: Anti-tubercular activity, colorimetric Resazurin Microplate Assay (REMA), susceptible strain. To be noted: 192 h, Middlebrook 7H9 broth, 37° C., 8 days of incubation then resazurin overnight, read-out: MIC (μg/mL) Susceptible (H37Rv). It counts as cell-based. In general terms: The colour change of resazurin is a common sign of viable cells or microbes.

`CCOC(=O)c1cc(C(=O)c2ccc(C)cc2)n2c1ccc1cc(C)ccc12` registered a melting point of 155 to 156 °C.

In turn, `CCOC(=O)c1cc(C(=O)c2ccccc2)n2c1ccc1cc(C)ccc12` displayed a melting point of 139 to 140 °C.

Molecule `CCOC(=O)c1cc(C(=O)c2ccc(F)cc2)n2c1ccc1cc(C)ccc12` showed a melting point of 163 to 164 °C.

`CCOC(=O)c1cc(C(=O)c2ccccc2[N+](=O)[O-])n2c1ccc1cc(C)ccc12` [Compound 4d, Ethyl 7-methyl-1-(2-nitrobenzoyl)pyrrolo[1,2-a]quinoline-3-carboxylate] yielded a melting point of 174 to 175 °C. Also, in data set [1], the MIC worked out at 8 µg/mL (≈ 19.9 µM).

`CCOC(=O)c1cc(C(=O)c2ccc(Br)cc2)n2c1ccc1cc(C)ccc12` [Compound 4e, Ethyl 1-(4-bromobenzoyl)-7-methylpyrrolo[1,2-a]quinoline-3-carboxylate] showed a melting point of 180 to 181 °C. Further, in data set [1], the MIC came out at 32 µg/mL (≈ 73.3 µM).

`CCOC(=O)c1cc(C(=O)c2cc(C(F)(F)F)cc(C(F)(F)F)c2)n2c1ccc1cc(C)ccc12` [Compound 4f, Ethyl 1-(3,5-bis(trifluoromethyl)benzoyl)-7-methylpyrrolo[1,2-a]quinoline-3-carboxylate]: the melting point lay within 223 to 224 °C. Further, the MIC in data set [1] was 16 µg/mL (≈ 32.4 µM).
